Test system: Rhizopus microsporus
Experiment: Sequential GC-MS analysis of breath samples from a patient with proven Rhizopus microsporus infection during antifungal therapy
Assay type: in vivo, human
Conditions: one patient with proven Rhizopus microsporus infection; from day 0 (start of therapy) over the 28-day treatment course

## C[C@@H](c1nc(-c2ccc(C#N)cc2)cs1)[C@](O)(Cn1cncn1)c1cc(F)ccc1F [isavuconazole]
  breath levels of three sesquiterpene metabolites (1H-Indene, 2,3,3a,4-tetrahydro-3,3a,6-trimethyl-1-(1-methylethyl)-; cedrene; cedranoxide, 8,14-): gradual attenuation and disappearance
